Four compounds from US10189803B2, “Synthesis of therapeutic and diagnostic drugs centered on regioselective and stereoselective ring opening of aziridinium ions” (ILLINOIS INSTITUTE OF TECHNOLOGY, priority 2008, dated 2019) can be followed below.

The structures appear in SMILES notation. Where only a bound is given, the exact number is not on record here.

A short description of series [1]: Complexation kinetics with Lu(III), AAIII assay. The format is physicochemical. On the procedure:
In summary, the novel decadentate ligand DEPA having both macrocyclic and acyclic metal binding moieties was efficiently prepared.
General procedure for complexation kinetics using AAIII. The kinetics experiments were performed as previously described. Ultrapure ammonium acetate (Aldrich, #431311) and hydrochloric acid solution (J. T. Baker, #JT6900-5) were purchased and used as received. All buffer solutions were prepared using deionized water (Milli-Q®, 18 MΩ). Metal-free stock solutions of all NH4OAc buffers (0.15 M, pH 4 or pH 4.5) were prepared using Chelex-100 resin (100-200 mesh, Bio-Rad Lab, Hercules, Calif.). Chelex resin (5 g) was added into the butter solution (100 mL) and the mixture was shaken for 1 h in a shaker (Eberbach), stored in the refrigerator overnight, and filtered through a Corning filter system (430513, pore size […]). A 15 μM AAIII solution in 0.15 M NH4OAc (pH 4 or pH 4.5) were prepared by adding AAIII (5.82 mg) to the NH4OAc buffer (500 mL). A solution of Bi(III)-AAIII (7.5 μM) was freshly prepared by mixing AAIII solution (15 μM, 50 mL) in 0.15 M NH4OAc (pH 4) with Bi(III) atomic absorption standard solution (79 μL, 995 μg/mL). A solution of Lu(III)-AAIII (1.8 μM) was freshly prepared by mixing AAIII solution ([…], 50 mL) in 0.15 M NH4OAc buffer (pH 4.5) with Lu(III) atomic absorption standard solution (15.4 μL, 1014 μg/ml). […]

A short description of series [2]: Complexation kinetics with Bi(III), Arsenazo III (AAIII) spectroscopic competing reaction. The format is physicochemical. Particulars: pH 4.0 (0.15M NH4OAc), 25° C., 1 hour. How it is done: The novel ligand DEPA was further evaluated for the complexation kinetics with other metals. The complexation kinetics of the ligand DEPA with Bi(III) was determined using a well-known spectroscopic competing reaction with AAIII according to a modification of the reported procedure (Kodama, M.; Koike, T.; Mahatma, A. B.; Kimura, E. Inorg. Chem. 1991, 30, 1270). AAIII is known to form a weak complex with many different metals, which produce a UV absorbance maximum between ˜652 nm. However, uncomplexed AAIII absorb little at this wavelength. When introduced to a solution containing the AAIII-metal complex, a chelate can compete with AAIII for the metal. The idea is that if the chelate is more capable of binding the metal than AAIII, the metal will dissociate from the AAIII complex and form a complex with the chelate leading to the decrease in the absorbance at the wavelength. The absorbance (A652) for AAIII-Bi(III) complex was measured in the absence and in the presence of the ligands over 1 hour at rt. The complexation kinetics of Bi(III) was determined at pH 4.0 as hydrolysis occurs at a higher pH. The complexation result of the new ligands studied herein was compared to that of DOTA.
General procedure for complexation kinetics using AAIII. The kinetics experiments were performed as previously described. […]

The test system of the next series is HT29 cells. As to the kind of experiment: Antiproliferative activity, MTS assay, HT29 cells. The format is cell-based, Human. Particulars: 72 h incubation. The method, boiled down:
(§1)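 HeLa cells (2,000/well) and HT29 cells (5,000/well) were allowed to attach for 24 h, then exposed to at least five compound dilutions for 72 h. Viability was read by MTS/PMS reduction (3 h, 37° C, A490). IC50 was obtained by nonlinear regression of OD as a fraction of solvent control, at least in triplicate.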

Series [3] has as its system Hela cells. The series is described as follows: Iron saturation experiment, Hela cell growth (MTS). The conditions noted are these: for effect on Hela cells saturated with Fe(III)-citrate (in words): chelator 50 μM, Fe(III)-citrate 50 μM. The format is cell-based, Human. How it is done:
Cytotoxicity of the new chelators was measured in the HeLa and HT29 cancer cells and compared to that of the clinically used iron chelators DFO and DTPA. […] The preliminary cell culture experiments were performed to see ifNETA is an effective cytotoxic agent. […] In order to investigate the effect of the chelators on the cellular growth, the Hela cancer cells saturated with Fe(III)-citrate (50 μM) were incubated with each of the chelators (50 μM).
Iron Saturation Experiment Hela Cells were inoculated onto 96-well plates at density of 2,000 per well in 0.1 mL complete medium and incubated for 24 h. […] Control samples containing no ferric citriate were also tested. […] After the incubation, cells proliferation rates were evaluated by MTS assay.

For the next series, the system named is MRC-5 cells. The series is described as follows: Antiproliferative activity in non-cancer lung fibroblast MRC-5 cells. The class given is cell-based, human. The conditions noted are these: FIG. 20. On the procedure:
The cytotoxicity of the chelators in the cancer cells was compared to their cytotoxicities in non-cancer cells using human lung fibroblast cell (MRC-5).
Cell culture Human cervix HeLa cell line was obtained from ATCC (Rockville, Md.) and cultured in minimum essential medium (MEM) with L-glutamine (2 mM), Earle's BSS and sodium bicarbonate (1.5 g/L), supplemented with 10% fetal bovine serum (FBS), non-essential amino acids (0.1 mM), sodium pyruvate (1 mM) and antibiotic/antimycotic solution in a humidified atmosphere with 5% CO2 at 37° C. Human colon cancer cell line HT29 was maintained in a humidified atmosphere with 5% CO2 at 37° C. in RPMI-1640 medium, containing 10% FBS with L-glutamine and antibiotic/antimycotic. Lung fibroblast MRC-5 cell line was obtained from ATCC (Rockville, Md.) and cultured in ATCC formulated EMEM, supplemented with 10% fetal bovine serum (FBS) in a humidified atmosphere with 5% CO2 at 37° C.
Antiproliferative Activity. […] Optical absorbance at 490 nm was then recorded with an enzyme-linked immunosorbent assay (ELISA) microtiter plate reader (Biotek). […] Antiproliferative activity of the test compounds was expressed as the fraction of optical densities of treated the cells relative to the untreated solvent controls.^31 The data were plotted in GraphPad Prizm 3.0. […]

The subject of series [4] is Hela cells. The series is described as follows: Antiproliferative activity, MTS assay, HeLa cells. Particulars: for IC50: 72 h incubation, MTS; for cytotoxicity in HeLa cells over a series of concentrations (in words): FIG. 18. The format is cell-based, Human. The method, boiled down:
as §1

A short description of series [5]: T1 relaxivity of Gd(III) complexes (Bruker mq60 NMR analyzer). The conditions noted are these: aqueous Gd(III) complexes, ~pH 7, 60 MHz. The class given is physicochemical. How it is done:
Gd(NE3TA) and Gd(NE3TA-Bn) were synthesized by reacting GdCl3 with NE3TA and NE3TA-Bn, respectively. NE3TA or NE3TA-Bn were mixed with GdCl3 in a molar ratio of 1 to 0.9, and the resulting mixture at pH 7 was heated to 90° C. and stirred until no free Gd(III) ions were detected using an ArsenazoIII (AAIII) assay. Relaxivity of the aqueous […] complexes (pH 7) was measured on a Bruker MQ60 NMR analyzer, and the concentration of the Gd(III) complexes was measured by ICP-MS. […] NE3TA was successfully conjugated with the most common bile acid, cholic acid (FIG. 41).
(§2) Relaxivity Measurements. Relaxivity measurements were acquired by taking the slope of a plot of 1/T1 (s^−1) versus concentration (mM). The longitudinal water proton relaxation times (T1) were determined using a Bruker mq60 NMR (Bruker Canada, Milton, ON, Canada) analyzer operating at 59.97 MHz and 37° C. The agent was added to Millipore water and serially diluted by 0.5 to give a series of 5 concentrations (500 μL total volume) for each relaxivity trial. The T1 was determined using an inversion recovery pulse sequence with 10 different pulse separations per sample, 4 repetitions per echo time, phase cycling, and a recycle delay that is ≥5 times the T1 of each given sample. All curves were fit using a monoexponential curve fitting formula.
Relaxivity of the aqueous Gd(III) complexes (˜pH 7) were measured on a Bruker MQ60 NMR analyzer, and the concentration of the Gd(III) complexes were measured by ICP-MS. […] As mentioned above, the on and off binding to Gd(III) of one of the pendant coordinates would have resulted enhanced relaxivity of Gd(C-NETA) compared to Gd(C-DOTA). Among the evaluated Gd(III) complexes, Gd(C-NE3TA) gives the highest T1 relaxivity at 60 MHz, probably due to increase in q. The relaxation rates for the Gd(III) chelates are dominated by the inner-sphere dipolar coupling between the coordinated water molecule and the paramagnetic Gd(III). The measured relaxivities arise from the exchange between the coordinated water molecule and the surrounding water molecules in solution. […] No indication of Gd(III) dissociation is evident from the relaxivity data, which is in agreement with the in vitro serum stability and in vivo biodistribution studies.
as §2, with “The T1 relaxivity was determined” for “The T1 was determined”

As for `O=C(O)CN1CCN(CCN(CC(=O)O)CC(=O)O)CCN(CC(=O)O)CCN(CC(=O)O)CC1` [DEPA, {7-[2-(Bis-carboxymethyl-amino)-ethyl]-4,10-bis-carboxymethyl-1,4,7,10-tetraazacyclo-dodec-1-yl}-acetic acid], in series [1], the “complexation with Lu(III) (in words)” value is reported as “slow in binding”. The “complexation with Bi(III) (absorbance at 652 nm vs time, in words)” value in series [2] was “quite prompt and substantial binding”.
In turn, `CC(=O)N(O)CCCCCNC(=O)CCC(=O)N(O)CCCCCNC(=O)CCC(=O)N(O)CCCCCN` [DFO, desferoxamine, reference compound] had an IC50 with HT29 cells of 36.1 ± 1.4 µM. In the series with Hela cells [3], the “effect on Hela cells saturated with Fe(III)-citrate (in words)” value is reported as “modest increase in cell viability”. Also, the “viability of normal MRC-5 cells compared to cancer cells (in words)” value in the series with MRC-5 cells is “little change in cell viability”. Further, in the series with Hela cells [4], the IC50 is more than 50 µM and the “cytotoxicity in HeLa cells over a series of concentrations (in words)” value is recorded as “not concentration-dependent”.
Regarding `O=C(O)CN1CCN(CC(=O)O)CCN(CC(=O)O)CCN(CC(=O)O)CC1` [DOTA, reference compound], in series [5], the “T1 relaxivity of Gd(III) complexes of bifunctional ligands” value was 3.96 mM⁻¹ s⁻¹. Further, the “complexation with Bi(III) (absorbance at 652 nm vs time, in words)” value in series [2] was “sluggish complexation”.
Compound `O=C(O)CN(CCN(CC(=O)O)CC(=O)O)CCN(CC(=O)O)CC(=O)O` [DTPA, diethylenepentaacetic acid, reference compound] displayed an IC50 with HT29 cells of 39.1 ± 4 µM. Moreover, in the series with Hela cells [3], the “effect on Hela cells saturated with Fe(III)-citrate (in words)” value is “almost no anti-proliferative activity”. In addition, the “HeLa cell survival (in words)” value with Hela cells [3] (free ligand 50 μM, no ferric citrate) is recorded as “almost all HeLa cells incubated with DTPA (50 μM) survived”. Moreover, the “viability of normal MRC-5 cells compared to cancer cells (in words)” value with MRC-5 cells is listed as “much enhanced viability of normal cells”. Also, in the series on Hela cells [4], inhibition was half-maximal at 264 ± 36.2 µM (IC50) and the “cytotoxicity in HeLa cells over a series of concentrations (in words)” value is “almost no cytotoxicity”.
